Data published in ChEMBL document CHEMBL5727862, “Inhibitors of plasma kallikrein and uses thereof” (2020).

Assay: Inhibitory Activity of Exemplary Compounds against Plasma Kallikrein: Example compounds were evaluated for inhibition of the human activated kallikrein enzyme in two formats of an assay employing a fluorogenic peptide substrate. In one assay format, the concentrations of reagents were as follows: 20 mM Tris pH 7.5, 1 mM EDTA, 150 mM sodium chloride, 0.1% PEG-400, 0.1% Triton X-100, 500 pM activated kallikrein enzyme, 300 uM Pro-Phe-Arg-7-amido-4-methylcoumarin substrate. Prior to reaction initiation with substrate, enzyme and inhibitors were preincubated for 30 min at RT. After initiation with substrate, reactions were incubated for 10 min at RT and fluorescence emission at 460 nm from 380 nm excitation measured with a microplate reader. In another assay format, the concentrations of reagents were as follows: 20 mM Tris pH 7.5, 1 mM EDTA, 150 mM sodium chloride, 0.1% PEG-400, 0.1% Triton X-100, 5 pM activated kallikrein enzyme, 300 uM Pro-Phe-Arg-7-amido-4-methylcoumarin substrate. Prior to reaction initiation with substrate, enzyme and inhibitors were preincubated for 30 min at RT. After initiation with substrate, reactions were incubated for 18 h at RT and fluorescence emission at 460 nm from 380 nm excitation measured with a microplate reader.

CC(C)(C)OC(=O)c1ncc(-c2cc(C3CC3)cn3cc(Cn4cc(C(=O)NCc5ncn6ccc(Cl)c(F)c56)nn4)nc23)s1
EC50: < 1 nM

O=C(NCc1ncn2ccc(Cl)c(F)c12)c1cn(Cc2cn3cc(C4CC4)ccc3n2)c(C(=O)O)n1
EC50: < 1 nM

CCOC(=O)C1CN(c2cc(C3CC3)cn3cc(Cn4cc(C(=O)NCc5ncn6ccc(Cl)c(F)c56)nn4)nc23)CCO1 (configuration not stated)
EC50: < 1 nM

CCOC(=O)c1cc(C2CC2)cn2cc(Cn3cc(C(=O)NCc4ncn5ccc(Cl)cc45)cn3)nc12
EC50: < 1 nM

O=C(NCc1cn2c(F)c(Cl)ccc2n1)c1cn(Cc2cn3cc(C4CC4)cc(Cc4nnc(C(=O)O)o4)c3n2)nn1
EC50: < 1 nM

O=C(NCc1cn2c(F)c(Cl)ccc2n1)c1cn(Cc2cn3cc(C4CC4)cc(Cc4nnco4)c3n2)nn1
EC50: < 1 nM

O=C(NCc1ncn2ccc(Cl)c(F)c12)c1cn(Cc2cn3cc(C4CC4)cc(CCl)c3n2)nn1
EC50: < 1 nM

CCOC(=O)c1cc(C2CC2)cn2cc(Cn3cc(C(=O)NCc4ncn5ccc(Cl)c(F)c45)nn3)nc12
EC50: < 1 nM

CCOC(=O)c1ccn(Cc2cc(C3CC3)cn3cc(Cn4cc(C(=O)NCc5ncn6ccc(Cl)c(F)c56)nn4)nc23)n1
EC50: < 1 nM

CC(c1cn2cc(C3CC3)cc(C3CCC(=O)O3)c2n1)n1cc(C(=O)NCc2ncn3ccc(Cl)c(F)c23)nn1 (configuration not stated)
EC50: < 1 nM

O=C(OCc1ccccc1)c1cnn(Cc2cn3cc(C4CC4)cc(CO)c3n2)c1
EC50: < 1 nM

O=C(NCc1ncn2ccc(Cl)c(F)c12)c1cn(Cc2cn3nc(C4CC4)cc(CN4CCCC4)c3n2)nn1
EC50: < 1 nM
